The values that follow come from PMC11960675, “3-Deazaguanosine inhibits SARS-CoV-2 viral replication and reduces the risk of COVID-19 pneumonia in hamster” (iScience, 2025).

By pEC50 is commonly meant the negative decadic logarithm of the EC50, by convention in mol/L. What is called CC50 is the concentration at which the toxic effect on the cells reaches its halfway point.

In data set [1] the test system is SARS-CoV-2. Briefly: microbe, parasite or virus in culture. The conditions noted are these: MOI 0.001, day 3 post-infection; for pEC50: Severe acute respiratory syndrome coronavirus 2, Vero C1008, 72 h, footnote a: CPE assay, SARS-CoV-2-infected Vero E6 cells, read-out: EC50 (anti-SARS-CoV-2 activity, CPE assay); for Anti-SARS-CoV-2 activity by CPE assay (crystal violet staining): Vero E6 cells, 30 μM in Figure 2. It counts as cell-based.

A short description of data set [2]: Cytotoxicity by WST-8 assay using uninfected Vero E6 cells. It counts as cell-based. To be noted: African green monkey. On the technique in general: Tetrazolium dyes change colour on reduction, which living cells bring about.
Data set [3] concerns SARS-CoV-2. The data set can be described thus: Syrian hamster model of COVID-19, intraperitoneal treatment. The conditions noted are these: for Body weight change of infected hamsters / Inflammatory area of lung sections: IP, 2 at 110 mg/kg/day qd, Molnupiravir 220 mg/kg/day bid; for Inflammatory area of lung sections: lung histopathology 5 dpi.
The subject of data set [4] is SARS-CoV-2. Briefly: Syrian hamster model of COVID-19, inhalation treatment by nebulizer. To be noted: for Inflammatory area of lung sections: lung histopathology 5 dpi, INH 110 mg/kg/day qd.
Data set [5] has as its system SARS-CoV-2. The data set can be described thus: qRT-PCR of viral RNA using SARS-CoV-2-infected Vero E6 cells. It counts as cell-based. The conditions noted are these: Severe acute respiratory syndrome coronavirus 2, Vero C1008, footnote b: qRT-PCR of viral RNA, MOI 0.001, non-linear curve fit, read-out: EC50 (95% CI) (anti-SARS-CoV-2 activity, qRT-PCR of viral RNA).
Data set [6] deals with recombinant SARS-CoV-2 RdRp complex (Severe acute respiratory syndrome coronavirus 2, UniProt P0DTD1). Format: biochemical. To be noted: 10 μM, 34°C, 2 h.
For data set [7], the target named is T1, vaccinia capping enzyme (VCE) (Vaccinia virus, UniProt P04298).
T1 construct: purchased CellScript C-SCCS2250
Format: biochemical. To be noted: model RNA fragment, 37°C, 2 h, LC-MS.

Where [8] appears, read: WST-8 assay, uninfected Vero E6 cells, read-out: CC50.

pEC50: −log10 of the molar value. “And” between values parts separate entries of the source, which are not always exact repeats. Equal values may be shown once. Read-outs that look alike come from different tables or passages of the source.

With `Nc1[nH]c(=O)c2ncn([C@@H]3O[C@H](CO)[C@@H](O)[C@H]3O)c2c1Cl` [Compound 5, 3-chloro-3-Deazaguanosine], in the data set on SARS-CoV-2 [1], the pEC50 is < 4.52 and the “Anti-SARS-CoV-2 activity by CPE assay (crystal violet staining)” value (“Anti-SARS-CoV-2 activity by CPE assay” for short) is reported as “loss of anti-viral activity”. Also, in data set [2], the CC50 is > 200 µM.
Take `Nc1[nH]c(=O)c2ncn([C@@H]3O[C@H](CO)[C@@H](O)[C@H]3O)c2c1F` [Compound 4, 3-fluoro-3-Deazaguanosine]: in the data set on SARS-CoV-2 [1], the negative-log EC50 (pEC50) is < 4.52 and the “Anti-SARS-CoV-2 activity by CPE assay” value was “loss of anti-viral activity”. The CC50 in data set [2] is > 200 µM.
With `CC(C)C(=O)OC[C@H]1O[C@@H](n2ccc(NO)nc2=O)[C@H](O)[C@@H]1O` [Molnupiravir, reference compound], in the data set on SARS-CoV-2 [3], the “Body weight change of infected hamsters” value is listed as “marginal reduction in body weight”. For the same molecule, the “Inflammatory area of lung sections” value in the data set with SARS-CoV-2 [3] is 0.24 ± 0.16%; with SARS-CoV-2 [4], 4.77 (±3.04) %.
In the case of `O=c1nc(NO)ccn1[C@@H]1O[C@H](CO)[C@@H](O)[C@H]1O` [NHC, N^4-hydroxy cytidine, reference compound], the negative-log EC50 (pEC50) in the data set on SARS-CoV-2 [5] was 6.57. Moreover, in data set [2], the CC50 was > 200 µM.
Turning to `CCC(CC)COC(=O)[C@H](C)N[P@](=O)(OC[C@H]1O[C@@](C#N)(c2ccc3c(N)ncnn23)[C@H](O)[C@@H]1O)Oc1ccccc1` [Remdesivir, reference compound], the pEC50 in the data set with SARS-CoV-2 [5] is 6.33. The half-maximal cytotoxic concentration (CC50) in data set [2] (setting [8]) was > 200 µM.
In the case of `Nc1cc2c(ncn2[C@@H]2O[C@H](COP(=O)(O)OP(=O)(O)OP(=O)(O)O)[C@@H](O)[C@H]2O)c(=O)[nH]1` [Compound 2-TP, 6-Amino-1-(β-D-ribofuranosyl)-1H-imidazo[4,5-c]pyridin-4(5H)-one 5′-triphosphate], in data set [6], the “RNA synthesis by recombinant SARS-CoV-2 RdRp complex (fluorescence intensity)” value is on record as “not inhibited”. For the same molecule, in data set [7], the “5′-capped RNA formed by VCE in the presence of both GTP and the compound” value is listed as “no 5′-capped RNA”; the “5′-capped RNA formed by VCE with the compound in place of GTP” value is “small amounts of 5′-C^3GpppA-capped RNA (IIIb) and 5′-m7C^3GpppG-capped RNA (IVb)”.
For the molecule `Nc1cc2c(ncn2[C@@H]2O[C@H](CO)[C@@H](O)[C@H]2O)c(=O)[nH]1` [Compound 2, 3-Deazaguanosine], the “Anti-SARS-CoV-2 activity by CPE assay” value in the data set with SARS-CoV-2 [1] is given as “inhibited viral replication”. Besides, in the data set with SARS-CoV-2 [5], the pEC50 is 5.94. For the same molecule, the CC50 in data set [2] is > 200 µM. For the same molecule, the “Lower infectious viral titer in lungs (fold)” value in the data set on SARS-CoV-2 [3] (2 dpi, IP 110 mg/kg/day qd) is given as > 10^5 fold; in the data set with SARS-CoV-2 [4] (5 dpi, inhalation, approximately 110 mg/kg/day qd), “more than 10^2 fold”. Also, the “Body weight change of infected hamsters” value with SARS-CoV-2 [3] is listed as “marginal reduction in body weight”. The “Inflammatory area of lung sections” value in the data set with SARS-CoV-2 [3] is 0.02 ± 0.02%; in the data set on SARS-CoV-2 [4], 0.98 (±0.36) % and 0.98 ± 0.36%. Further, the “Body weight loss associated with infection” value in the data set on SARS-CoV-2 [4] (inhalation, approximately 110 mg/kg/day qd) was “reduction in the body weight loss”.
For the molecule `Nc1cc2[nH]cnc2c(=O)[nH]1` [Compound 10, 6-Amino-1H-Imidazo[4,5-c]pyridin-4(5H)-one], in the data set with SARS-CoV-2 [1], the “Anti-SARS-CoV-2 activity by CPE assay” value is reported as “had anti-SARS-CoV-2 activity”. Further, in the data set on SARS-CoV-2 [5], the pEC50 is 4.90. Further, the CC50 in data set [2] (setting [8]) was > 200 µM.
With `OC[C@H]1O[C@@H](n2cnc3c(O)nccc32)[C@H](O)[C@@H]1O` [Compound 3, 3-deazainosine], the pEC50 in the data set on SARS-CoV-2 [1] was < 4.52. Besides, the half-maximal cytotoxic concentration (CC50) in data set [2] was > 200 µM.
On to `Nc1nccc2c1ncn2[C@@H]1O[C@H](CO)[C@@H](O)[C@H]1O` [Compound 1, 3-deazaadenosine], for which, in the data set with SARS-CoV-2 [1], the pEC50 is < 4.52. In addition, in data set [2], the CC50 is > 200 µM.
For the molecule `Nc1cc2c(ncn2[C@@H]2O[C@H](CO)[C@@H](O)[C@H]2O)c(N)n1` [Compound 6, 4,6-Diamino-1-β-D-ribofuranosyl-1H-imidazo[4,5-c]pyridine], in the data set on SARS-CoV-2 [1], the pEC50 was < 4.52 and the “Anti-SARS-CoV-2 activity by CPE assay” value is “no inhibitory effects”. The CC50 in data set [2] is > 200 µM.
For the molecule `Nc1cc2c(ncn2[C@H]2C[C@H](O)[C@@H](CO)O2)c(=O)[nH]1` [Compound 11, 6-Amino-1-(2-deoxy-β-D-ribofuranosyl)-1H-imidazo[4,5-c]pyridin-4(5H)-one], in the data set on SARS-CoV-2 [1], the “Anti-SARS-CoV-2 activity by CPE assay” value is “had anti-SARS-CoV-2 activity”. Also, in the data set on SARS-CoV-2 [5], the pEC50 was 5.27. In addition, the CC50 in data set [2] was > 200 µM.
`Nc1nc2c(ncn2[C@H]2CC[C@@H](COP(=O)(O)OP(=O)(O)OP(=O)(O)O)O2)c(=O)[nH]1` [ddGTP, 2′,3′-dideoxy GTP, reference compound]: the “RNA synthesis by recombinant SARS-CoV-2 RdRp complex (fluorescence intensity)” value in data set [6] is listed as “reduced”.
